Data reported in patent publication US9199946B2, “Pyrimidinone carboxamide inhibitors of endothelial lipase” (BRISTOL-MYERS SQUIBB COMPANY, priority 2012, dated 2015).
pIC50: −log10 of the molar value. Read-outs that look alike come from different tables or passages of the source.

Molecular target: T1, Endothelial lipase (EL) (Homo sapiens, UniProt Q9Y5X9)
T1 construct: HT-1080 cells, which were transformed by RAGE technology (Athersys) to overexpress endogenous EL; endogenous in cells; conditioned medium used as the enzyme source
T1 sequence (Q9Y5X9 21-500): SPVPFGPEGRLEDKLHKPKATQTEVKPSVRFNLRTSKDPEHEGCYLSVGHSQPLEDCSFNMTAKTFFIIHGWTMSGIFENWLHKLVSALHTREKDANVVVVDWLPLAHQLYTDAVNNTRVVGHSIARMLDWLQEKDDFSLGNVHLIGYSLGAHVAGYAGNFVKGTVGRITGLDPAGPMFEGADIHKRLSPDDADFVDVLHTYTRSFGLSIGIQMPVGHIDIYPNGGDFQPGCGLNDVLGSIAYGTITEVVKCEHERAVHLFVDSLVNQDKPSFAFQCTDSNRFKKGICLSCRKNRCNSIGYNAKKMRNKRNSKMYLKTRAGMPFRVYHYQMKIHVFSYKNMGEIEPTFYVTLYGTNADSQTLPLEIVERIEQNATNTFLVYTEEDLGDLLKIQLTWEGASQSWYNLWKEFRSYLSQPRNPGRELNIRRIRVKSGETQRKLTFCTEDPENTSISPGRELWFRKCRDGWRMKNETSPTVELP
Assay: Endothelial lipase (EL) enzymatic assay with fluorescent substrate A10070 in DMPG vesicles
Format: biochemical
Procedure, shortened: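 EL activity was followed as a fluorescence rate (488/530 nm, reads every 20 s for 10 min, linear slope) on A10070 doped at 0.05 mole fraction into sonicated DMPG vesicles. Compound was first incubated 20 min at 37 °C, pH 8.0 HEPES/CaCl2 buffer, with conditioned media from EL-overexpressing HT-1080 cells.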

[1] = range observed in the EL assay, read-out: EL IC50 values
[2] = conditioned media from HT-1080 cells overexpressing endogenous EL, 20 min preincubation at 37° C., read-out: EL IC50

`Nc1c(C(=O)N[C@H]2CCCc3cc(OCc4ccccc4)ccc32)[nH]c(=O)[nH]c1=O` [Example 93, (S)-5-amino-N-(6-(benzyloxy)-1,2,3,4-tetrahydronaphthalen-1-yl)-2,6-dioxo-1,2,3,6-tetrahydropyrimidine-4-carboxamide] showed a pIC50 [1] of no less than 5.00.

`Nc1c(C(=O)N[C@H]2CCCc3ccc(F)cc32)[nH]c(=O)[nH]c1=O` [Example 41, (S)-5-amino-N-(7-fluoro-1,2,3,4-tetrahydronaphthalen-1-yl)-2,6-dioxo-1,2,3,6-tetrahydropyrimidine-4-carboxamide] showed a pIC50 [1] of no less than 5.00.

Compound `Nc1c(C(=O)NC2CCC(NC(=O)Cc3nc4ccc(-c5ccccc5)cc4s3)C2)[nH]c(=O)[nH]c1=O` (stereo not drawn) [Example 135, 5-amino-2,6-dioxo-N-(3-(2-(6-phenylbenzo[d]thiazol-2-yl)acetamido)cyclopentyl)-1,2,3,6-tetrahydropyrimidine-4-carboxamide] has a pIC50 [2] of 5.43 and a pIC50 [1] of no less than 5.00.

`Nc1c(C(=O)N[C@@H]2CC[C@@H](C(=O)N[C@H]3CC[C@@H](c4cccc(C(F)(F)F)c4)CC3)C2)[nH]c(=O)[nH]c1=O` [Example 150, 5-amino-2,6-dioxo-N-((1R,3R)-3-(cis-4-(3-(trifluoromethyl)phenyl)cyclohexylcarbamoyl)cyclopentyl)-1,2,3,6-tetrahydropyrimidine-4-carboxamide] gave a pIC50 [1] of no less than 5.00.

`CC(C)CNc1c(C(=O)N[C@H]2CC[C@@H](c3ccccc3)CC2)[nH]c(=O)[nH]c1=O` [Example 206, 5-(isobutylamino)-2,6-dioxo-N-(cis-4-phenylcyclohexyl)-1,2,3,6-tetrahydropyrimidine-4-carboxamide] showed a pIC50 [1] of no less than 5.00.

For `Nc1c(C(=O)N[C@H]2CCCc3ccccc32)[nH]c(=O)[nH]c1=O` [Example 10, (S)-5-amino-2,6-dioxo-N-(1,2,3,4-tetrahydronaphthalen-1-yl)-1,2,3,6-tetrahydropyrimidine-4-carboxamide], the pIC50 [1] was no less than 5.00.

`Nc1c(C(=O)N[C@H]2CC[C@@H](c3ccccc3)CC2)n(-c2cc(F)cc(C(F)(F)F)c2)c(=O)[nH]c1=O` [Example 203, 5-Amino-3-(3-fluoro-5-(trifluoromethyl)phenyl)-2,6-dioxo-N-(cis-4-phenylcyclohexyl)-1,2,3,6-tetrahydropyrimidine-4-carboxamide] gave a pIC50 [2] of 5.21 and a pIC50 [1] of no less than 5.00.

`O=C(N[C@H]1CC[C@@H](c2ccccc2)CC1)c1[nH]c(=O)n(CCO)c(=O)c1O` [Example 269, 5-Hydroxy-1-(2-hydroxyethyl)-2,6-dioxo-N-(cis-4-phenylcyclohexyl)-1,2,3,6-tetrahydropyrimidine-4-carboxamide] showed a pIC50 [1] of no less than 5.00.

`Nc1c(C(=O)N[C@@H]2CCC(c3ccc(Cl)c(Cl)c3)c3ccccc32)[nH]c(=O)[nH]c1=O` (single isomer, unassigned) [Example 37] was tested, and the pIC50 [1] was no less than 5.00.

With `Nc1c(C(=O)N[C@H]2CC[C@@H](c3ccc(Cl)c(Cl)c3)C2)[nH]c(=O)[nH]c1=O` [Example 67, 5-amino-N-((1S,3R)-3-(3,4-dichlorophenyl)cyclopentyl)-2,6-dioxo-1,2,3,6-tetrahydropyrimidine-4-carboxamide] the pIC50 [1] was no less than 5.00.

`Cn1nc(C(F)(F)F)cc1-c1ccc([C@H]2CC[C@@H](NC(=O)c3[nH]c(=O)[nH]c(=O)c3N)C2)cc1` [Example 173, 5-amino-N-((1R,3S)-3-(4-(1-methyl-3-(trifluoromethyl)-1H-pyrazol-5-yl)phenyl)cyclopentyl)-2,6-dioxo-1,2,3,6-tetrahydropyrimidine-4-carboxamide] gave a pIC50 [1] of no less than 5.00.

In the case of `CCOC(=O)N1CCC(NC(=O)c2[nH]c(=O)[nH]c(=O)c2N)c2ccccc21` (racemic) [Example 25, ethyl 4-(5-amino-2,6-dioxo-1,2,3,6-tetrahydropyrimidine-4-carboxamido)-3,4-dihydroqiiinoline-1(2H)-carboxylate], the pIC50 [2] was 5.98 and the pIC50 [1] was no less than 5.00.

With `O=C(NC1CCCC(c2cnn(Cc3ccccc3)c2)C1)c1[nH]c(=O)[nH]c(=O)c1O` (racemic) [Example 289, N-(3-(1-benzyl-1H-pyrazol-4-yl)cyclohexyl)-5-hydroxy-2,6-dioxo-1,2,3,6-tetrahydropyrimidine-4-carboxamide] the pIC50 [2] was 8.00 and the pIC50 [1] was no less than 5.00.

For `CC(C)Cn1c(=O)[nH]c(C(=O)N[C@H]2CC[C@@H](c3ccccc3)CC2)c(O)c1=O` [Example 253, 5-hydroxy-1-isobutyl-2,6-dioxo-N-((1s,4s)-4-phenylcyclohexyl)-1,2,3,6-tetrahydropyrimidine-4-carboxamide], the pIC50 [1] was no less than 5.00.

`O=C(N[C@H]1CC[C@@H](c2ccccc2)CC1)c1[nH]c(=O)[nH]c(=O)c1NCc1ccccn1` [Example 225, 2,6-dioxo-N-(cis-4-phenylcyclohexyl)-5-(pyridin-2-ylmethylamino)-1,2,3,6-tetrahydropyrimidine-4-carboxamide] gave a pIC50 [2] of 5.28 and a pIC50 [1] of no less than 5.00.

In the case of `O=C(N[C@H]1CC[C@@H](c2ccccc2)CC1)c1[nH]c(=O)[nH]c(=O)c1NCc1ccc(C(F)(F)F)cc1` [Example 220, 2,6-dioxo-N-(cis-4-phenylcyclohexyl)-5-(4-(trifluoromethyl)benzylamino)-1,2,3,6-tetrahydropyrimidine-4-carboxamide], the pIC50 [1] was no less than 5.00.

`N#C[C@]1(c2ccc(Cl)c(Cl)c2)CC[C@@H](NC(=O)c2[nH]c(=O)[nH]c(=O)c2N)CC1` [Example 7, 5-amino-N-(cis-4-cyano-4-(3,4-dichlorophenyl)cyclohexyl)-2,6-dioxo-1,2,3,6-tetrahydropyrimidine-4-carboxamide] was tested, and the pIC50 [1] was no less than 5.00.

With `Nc1c(C(=O)NC2CCCCC2C2CCCCC2)[nH]c(=O)[nH]c1=O` (stereo not drawn) [Example 59, 5-amino-N-(bi(cyclohexan)-2-yl)-2,6-dioxo-1,2,3,6-tetrahydropyrimidine-4-carboxamide] the pIC50 [1] was no less than 5.00.

Compound `O=C(N[C@H]1CCc2ccc(OCc3ccccc3)cc21)c1[nH]c(=O)[nH]c(=O)c1O` [Example 259, (S)-N-(6-(benzyloxy)-2,3-dihydro-1H-inden-1-yl)-5-hydroxy-2,6-dioxo-1,2,3,6-tetrahydropyrimidine-4-carboxamide] has a pIC50 [2] of 8.00 and a pIC50 [1] of no less than 5.00.

For `O=C(N[C@H]1CC[C@@H](c2ccccc2)CC1)c1[nH]c(=O)n(CC(F)(F)F)c(=O)c1O` [Example 243, 5-hydroxy-2,6-dioxo-N-(cis-4-phenylcyclohexyl)-1-(2,2,2-trifluoroethyl)-1,2,3,6-tetrahydropyrimidine-4-carboxamide], the pIC50 [2] was 6.01 and the pIC50 [1] was no less than 5.00.

For `Nc1c(C(=O)NC2CCC(c3cccc(OCc4ccccc4)c3)C2)[nH]c(=O)[nH]c1=O` (stereo not drawn) [Example 104, 5-amino-N-(3-(3-(benzyloxy)phenyl)cyclopentyl)-2,6-dioxo-1,2,3,6-tetrahydropyrimidine-4-carboxamide], the pIC50 [1] was no less than 5.00.

Compound `CC(C)CCNc1c(C(=O)N[C@H]2CC[C@@H](c3ccccc3)CC2)[nH]c(=O)[nH]c1=O` [Example 210, 5-(isopentylamino)-2,6-dioxo-N-(cis-4-phenylcyclohexyl)-1,2,3,6-tetrahydropyrimidine-4-carboxamide] has a pIC50 [1] of no less than 5.00.

In the case of `Nc1c(C(=O)NC2CCC(c3nc4ccc(-c5ccccc5)cc4s3)C2)[nH]c(=O)[nH]c1=O` (stereo not drawn) [Example 144, 5-amino-2,6-dioxo-N-(3-(6-phenylbenzo[d]thiazol-2-yl)cyclopentyl)-1,2,3,6-tetrahydropyrimidine-4-carboxamide], the pIC50 [1] was no less than 5.00.
